{"source": "patent US6323199A", "about": "“Nonsteroidal anti-inflammatory agents” (Schering Aktiengesellschaft, priority 1998, dated 2001)", "biological_target": "T1, glucocorticoid receptor (GR) (Rattus norvegicus, UniProt P06536)", "T1 construct": "cytosol preparations that consist of the thymus homogenates of rats; from tissue; host or cells: rat thymus homogenate, cytosol", "T1 sequence (P06536 1-795)": "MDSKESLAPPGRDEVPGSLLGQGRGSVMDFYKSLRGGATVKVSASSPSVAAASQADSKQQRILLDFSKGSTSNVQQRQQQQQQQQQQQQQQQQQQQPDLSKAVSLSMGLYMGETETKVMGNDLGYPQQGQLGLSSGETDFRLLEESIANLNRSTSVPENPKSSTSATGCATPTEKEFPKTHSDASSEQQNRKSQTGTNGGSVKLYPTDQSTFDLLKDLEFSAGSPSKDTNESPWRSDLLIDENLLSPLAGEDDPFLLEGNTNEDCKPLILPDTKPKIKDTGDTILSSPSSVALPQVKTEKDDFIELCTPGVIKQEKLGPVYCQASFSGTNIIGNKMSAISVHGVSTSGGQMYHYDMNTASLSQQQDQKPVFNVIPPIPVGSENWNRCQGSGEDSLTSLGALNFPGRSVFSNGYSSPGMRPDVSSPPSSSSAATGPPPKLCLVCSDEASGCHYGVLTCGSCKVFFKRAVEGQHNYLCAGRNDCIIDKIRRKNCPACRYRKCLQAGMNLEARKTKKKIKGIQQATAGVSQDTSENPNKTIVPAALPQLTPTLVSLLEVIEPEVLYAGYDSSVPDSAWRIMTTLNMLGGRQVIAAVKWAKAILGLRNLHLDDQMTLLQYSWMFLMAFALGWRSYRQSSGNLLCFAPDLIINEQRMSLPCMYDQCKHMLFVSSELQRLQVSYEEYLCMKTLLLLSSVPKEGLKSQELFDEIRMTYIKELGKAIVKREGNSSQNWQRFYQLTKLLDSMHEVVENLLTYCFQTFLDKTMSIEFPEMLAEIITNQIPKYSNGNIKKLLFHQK", "test": "glucocorticoid receptor (GR)-binding test, cytosol of rat thymus homogenates, [3H]-dexamethasone", "key": {"[1]": {"conditions": "10 nM [3H]-dexamethasone, rat thymus cytosol, read-out: IC50 (GR-binding test)"}}, "note": "Read-outs that look alike come from different tables or passages of the source.", "data": [{"smiles": "CC(C)(CC(O)(C(=O)Nc1ccc2c(c1)COC2=O)C(F)(F)F)c1cc(F)ccc1O", "note": "(centres unmarked) [i, 5-[4-(5-Fluoro-2-hydroxyphenyl)-2-hydroxy-4-methyl-2-trifluoromethyl-valeroylamino]-phthalide]", "values": [{"measurement": "IC50", "result": 2.8, "unit": "nM"}]}, {"smiles": "CC(C)(CC(O)(CNc1ccc2c(c1)COC2=O)C(F)(F)F)c1cc(F)ccc1O", "note": "(centres unmarked) [ii, 5-[4-(5-fluoro-2-hydroxyphenyl)-2-hydroxy-4-methyl-2-trifluoromethyl-pentylamino]-phthalide]", "values": [{"measurement": "IC50", "setting": "[1]", "result": 2.3, "unit": "nM"}]}, {"smiles": "COc1ccc(F)cc1C(C)(C)CC(O)(C(=O)Nc1ccc2c(=O)onc(C)c2c1)C(F)(F)F", "note": "(centres unmarked) [iii, 6-[4-(5-fluoro-2-methoxyphenyl)-2-hydroxy-4-methyl-2-trifluoromethyl-valeroylamino]-4-methyl-2,3-benzoxazin-1-one]", "values": [{"measurement": "IC50", "setting": "[1]", "result": 4.6, "unit": "nM"}]}, {"smiles": "COc1cc(Br)ccc1C(C)(C)CC(O)(C(=O)Nc1ccc2c(=O)onc(C)c2c1)C(F)(F)F", "note": "(centres unmarked) [iv, 6-[4-(4-bromo-2-methoxyphenyl)-2-hydroxy-4-methyl-2-trifluoromethyl-valeroylamino]-4-methyl-2,3-benzoxazin-1-one]", "values": [{"measurement": "IC50", "setting": "[1]", "result": 4.9, "unit": "nM"}]}, {"smiles": "Cc1noc(=O)c2ccc(NC(=O)C(O)(CC(C)(C)c3cc(F)ccc3O)C(F)(F)F)cc12", "note": "(centres unmarked) [v, 6-[4-(5-fluoro-2-hydroxyphenyl)-2-hydroxy-4-methyl-2-trifluoromethyl-valeroylamino]-4-methyl-2,3-benzoxazin-1-one]", "values": [{"measurement": "IC50", "result": 2.6, "unit": "nM"}]}]}
